Active and inactive are the calls of the source. No cut-off for these calls is given here.
How the values were obtained:
[1] = Induction of DPPH reduction by H2S2 generated from parent compound by UV spectrometry; design: scale not given: the % may be the effect or the level left
[2] = Stability of compound in DCM incubated at room temperature; format: physicochemical
[3] = Stability of compound assessed as compound decomposition at 4 degree C measured after 3 weeks; format: physicochemical; settings: 504 h
[4] = Drug metabolism in PBS buffer assessed as hydrolysis at pH 7.4 in presence of 25 uM CTAB by DSP-3 probe based fluorescence assay; format: physicochemical
[5] = Stability of compound in THF incubated at room temperature; format: physicochemical
[6] = Cysteine reactivity in human PC3 cells under physiological conditions; format: ADME, cell-based; settings: pc-3
HeLa [7] = assay: Induction of H2S generation in human HeLa cells at 100 uM pretreated with thiol blocking reagent NEM for 30 mins followed by lysine treatment for 20 mins and subsequent compound treatment after 30 mins by DSP-3 probe based fluorescence assay; format: functional, cell-based
PC-3 [8] = assay: Induction of H2S2 generation in human PC3 cells at 100 uM measured after 30 mins by DSP-3 probe based fluorescence assay; format: functional, cell-based
PC-3 [9] = assay: Induction of H2S generation in human PC3 cells at 100 uM pretreated with thiol blocking reagent NEM for 30 mins followed by lysine treatment for 20 mins and subsequent compound treatment after 30 mins by DSP-3 probe based fluorescence assay; format: functional, cell-based
PC-3 [10] = assay: Induction of H2S generation in human PC3 cells at 100 uM measured after 30 mins by DSP-3 probe based fluorescence assay; format: functional, cell-based
[11] = GSH reactivity in human PC3 cells under physiological conditions; format: ADME, cell-based; settings: pc-3
PC-3 [12] = assay: Induction of H2S2 generation in human PC3 cells at 100 uM pretreated with thiol blocking reagent NEM for 30 mins followed by lysine treatment for 20 mins and subsequent compound treatment after 30 mins by DSP-3 probe based fluorescence assay; format: functional, cell-based
HeLa [13] = assay: Induction of H2S2 generation in human HeLa cells at 100 uM measured after 30 mins by DSP-3 probe based fluorescence assay; format: functional, cell-based
HeLa [14] = assay: Induction of H2S generation in human HeLa cells at 100 uM measured after 30 mins by DSP-3 probe based fluorescence assay; format: functional, cell-based
HeLa [15] = assay: Induction of H2S2 generation in human HeLa cells at 100 uM pretreated with thiol blocking reagent NEM for 30 mins followed by lysine treatment for 20 mins and subsequent compound treatment after 30 mins by DSP-3 probe based fluorescence assay; format: functional, cell-based

Stability [2] | Stability [3] | Stability [5] | SMILES | Activity [1] | other results
 |  |  | NCCN | 40% | 
Stable | Stable | Stable | CC(C)(C(=O)SSC(=O)C(C)(C)c1ccccc1)c1ccccc1 |  | Drug metabolism [4]: Metabolite_Notdetected
 |  |  | CC[Si](CC)(CC)OC(SSC(O[Si](CC)(CC)CC)C(C)C)C(C)C (centres undefined) | 30% | 
 |  |  | CC[Si](CC)(CC)OC(S)C(C)C (centres undefined) | 15% | 
Stable | Stable | Stable | CC(=O)SSC(C)=O | 40% | Drug metabolism [6]: Active; Activity (HeLa [7]): Active; Activity (PC-3 [8]): Active; Activity (PC-3 [9]): Active; Activity (PC-3 [10]): Active; Drug metabolism [11]: Active; Activity (PC-3 [12]): Active; Activity (HeLa [13]): Active; Activity (HeLa [14]): Active; Activity (HeLa [15]): Active
Stable | Stable | Stable | O=C(Cc1ccccc1)SSC(=O)Cc1ccccc1 |  | 
